From ChEMBL document CHEMBL1201862, “PubChem BioAssay data set” (2004)
Calls of active or inactive are those of the source.

Tests used:
[1] = system: Streptococcus sp. 'group A'; assay: Streptococcus pyogenes SK(-)GAS viability under kanamycin – luminescence, BacTiterGlo, confirmation, counter-screen for streptokinase expression inhibitor project, dose response (AID 1900); type: functional, organism-based
[2] = molecular target: T1, Polyadenylate-binding protein 1 (Homo sapiens, UniProt P11940); assay: MLLE binding blockers, Cy5 peptide tracer – biochemical, fluorescence polarization, Cy5-PAM2 peptide, secondary, miRNA deadenylation inhibitor project, dose response (AID 602260); type: functional; conditions: read-out: IC50_Mean
T1 sequence (P11940 whole entry): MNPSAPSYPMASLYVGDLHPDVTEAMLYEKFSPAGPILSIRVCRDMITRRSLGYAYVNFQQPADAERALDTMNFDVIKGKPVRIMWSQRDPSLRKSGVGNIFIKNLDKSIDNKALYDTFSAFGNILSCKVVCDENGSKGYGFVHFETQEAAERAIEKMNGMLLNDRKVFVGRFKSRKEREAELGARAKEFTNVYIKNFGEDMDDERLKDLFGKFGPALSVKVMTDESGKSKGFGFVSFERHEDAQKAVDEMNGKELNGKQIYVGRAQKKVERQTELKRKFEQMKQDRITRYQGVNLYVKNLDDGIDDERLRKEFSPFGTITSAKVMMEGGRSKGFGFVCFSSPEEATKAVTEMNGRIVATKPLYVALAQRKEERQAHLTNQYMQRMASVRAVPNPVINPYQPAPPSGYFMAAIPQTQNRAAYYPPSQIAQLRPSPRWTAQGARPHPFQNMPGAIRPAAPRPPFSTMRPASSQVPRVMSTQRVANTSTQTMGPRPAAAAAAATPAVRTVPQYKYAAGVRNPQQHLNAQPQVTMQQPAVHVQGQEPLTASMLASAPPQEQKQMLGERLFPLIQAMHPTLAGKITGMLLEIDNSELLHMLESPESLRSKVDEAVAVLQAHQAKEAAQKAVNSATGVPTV

Streptococcus = assay: GAS UMAA2166 growth inhibition – luminescence, BacTiterGlo, counter-screen for streptokinase expression inhibitor project, dose response (AID 1915); type: functional, organism-based;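 further: potency for reduction of bacterial viability or growth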
[3] = molecular target: T1, Polyadenylate-binding protein 1; assay: MLLE domain peptide-binding blockers, IC50 – biochemical, fluorescence polarization, FITC-PAM2 peptide, dose response (AID 602259); type: functional; conditions: read-out: IC50_Mean
Streptokinase A = molecular target: T2, Streptokinase A (Streptococcus pyogenes serotype M1, UniProt P10520); assay: viability-normalized secreted streptokinase activity reduction – plasminogen activation absorbance, OD405, dose response (AID 1914); type: functional, Streptococcus pyogenes M1 GAS;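 further: secreted streptokinase activity via plasminogen activation per viability signal from cell pellet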
T2 sequence (P10520 whole entry): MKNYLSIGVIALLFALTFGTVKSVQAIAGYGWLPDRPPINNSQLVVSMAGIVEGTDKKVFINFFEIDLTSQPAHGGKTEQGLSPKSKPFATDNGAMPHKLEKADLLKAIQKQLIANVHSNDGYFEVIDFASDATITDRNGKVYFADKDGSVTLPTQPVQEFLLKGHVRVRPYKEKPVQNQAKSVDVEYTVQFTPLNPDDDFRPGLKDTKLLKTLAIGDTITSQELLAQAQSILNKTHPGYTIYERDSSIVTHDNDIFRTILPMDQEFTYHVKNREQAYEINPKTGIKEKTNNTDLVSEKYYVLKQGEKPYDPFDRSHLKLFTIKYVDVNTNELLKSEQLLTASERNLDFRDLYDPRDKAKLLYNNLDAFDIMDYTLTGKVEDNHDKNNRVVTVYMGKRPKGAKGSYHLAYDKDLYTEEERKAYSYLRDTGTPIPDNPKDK

[4] = viability of uninfected HEp-2 cells – cell-based, HTS, cytotoxicity control for RSV inhibitor project, dose response (AID 2410); type: functional; conditions: human respiratory syncytial virus
[5] = molecular target: T3, Short transient receptor potential channel 4 (Mus musculus, UniProt Q9QUQ5); assay: calcium entry via TRPC4 opening agents – cell-based, HEK293 TRPC4/mu-opioid, Fluo-4 calcium, dose response (AID 434937); type: functional
T3 sequence (Q9QUQ5 whole entry): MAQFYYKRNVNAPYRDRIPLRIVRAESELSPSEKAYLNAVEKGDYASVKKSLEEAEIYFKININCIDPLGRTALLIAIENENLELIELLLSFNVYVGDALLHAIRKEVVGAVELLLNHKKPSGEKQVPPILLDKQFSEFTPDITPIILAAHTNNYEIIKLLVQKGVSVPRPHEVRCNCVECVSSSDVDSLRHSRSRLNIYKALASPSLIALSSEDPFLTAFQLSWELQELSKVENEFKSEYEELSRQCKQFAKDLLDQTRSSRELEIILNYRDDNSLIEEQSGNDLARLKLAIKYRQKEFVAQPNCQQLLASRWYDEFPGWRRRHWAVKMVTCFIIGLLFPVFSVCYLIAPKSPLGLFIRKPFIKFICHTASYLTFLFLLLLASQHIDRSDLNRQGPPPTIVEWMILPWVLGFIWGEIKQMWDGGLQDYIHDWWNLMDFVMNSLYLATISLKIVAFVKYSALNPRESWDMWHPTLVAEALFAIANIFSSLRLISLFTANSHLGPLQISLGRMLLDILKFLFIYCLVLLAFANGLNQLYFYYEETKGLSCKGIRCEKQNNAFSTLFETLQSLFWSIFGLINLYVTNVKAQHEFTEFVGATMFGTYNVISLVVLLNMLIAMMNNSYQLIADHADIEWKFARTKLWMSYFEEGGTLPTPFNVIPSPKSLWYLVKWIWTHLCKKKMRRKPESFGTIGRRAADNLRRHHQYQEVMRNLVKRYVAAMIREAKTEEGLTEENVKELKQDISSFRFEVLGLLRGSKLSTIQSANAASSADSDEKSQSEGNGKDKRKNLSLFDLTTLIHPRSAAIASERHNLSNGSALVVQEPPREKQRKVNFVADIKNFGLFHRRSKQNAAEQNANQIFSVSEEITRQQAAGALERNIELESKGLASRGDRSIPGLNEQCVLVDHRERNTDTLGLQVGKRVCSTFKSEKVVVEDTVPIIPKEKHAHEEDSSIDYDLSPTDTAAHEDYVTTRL

[6] = molecular target: T3, Short transient receptor potential channel 4; assay: block of DAMGO-driven TRPC4 calcium entry – cell-based, HEK293 TRPC4/mu-opioid, Fluo-4 calcium, dose response (AID 434942); type: functional;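 further: potency of inhibitors blocking the TRPC4 calcium response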
[7] = molecular target: FAD-linked sulfhydryl oxidase ALR (Homo sapiens, UniProt P55789); assay: ALR-catalysed DTT oxidation blockers – biochemical, H2O2 detection, luminescence, cherry-pick, dose response (AID 493248)
FAD-linked sulfhydryl oxidase ALR, sequence (P55789 whole entry): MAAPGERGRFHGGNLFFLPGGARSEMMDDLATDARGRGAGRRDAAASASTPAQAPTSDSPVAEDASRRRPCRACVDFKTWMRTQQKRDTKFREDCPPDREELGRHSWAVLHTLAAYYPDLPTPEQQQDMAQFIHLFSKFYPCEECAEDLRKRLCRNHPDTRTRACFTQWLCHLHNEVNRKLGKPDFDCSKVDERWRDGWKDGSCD

[8] = Trypanosoma cruzi growth suppression in host cells – NIH3T3 host cells, beta-gal luminescence, confirmation (AID 2044); type: functional, cell-based;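 further: intracellular parasites grown in NIH/3T3 mouse fibroblasts as host cells; luminescent beta-galactosidase reporter signal from transgenic T. cruzi replicating inside host cells; inhibitors lower the luminescence signal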
[9] = NIH3T3 cell viability loss – ATP luminescence, mouse fibroblasts, counter-screen, dose response (AID 2010); type: functional, cell-based;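 further: cells exposed to compound for about 90 hours before reading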
Leucine aminopeptidase = molecular target: T4, Leucine aminopeptidase (Plasmodium falciparum 3D7, UniProt Q8IL11); assay: P. falciparum M17LAP inhibitors, primary screen, biochemical, fluorogenic H-Leu-NHMec substrate, 1536-well (AID 1619); type: functional
T4 sequence (Q8IL11 whole entry): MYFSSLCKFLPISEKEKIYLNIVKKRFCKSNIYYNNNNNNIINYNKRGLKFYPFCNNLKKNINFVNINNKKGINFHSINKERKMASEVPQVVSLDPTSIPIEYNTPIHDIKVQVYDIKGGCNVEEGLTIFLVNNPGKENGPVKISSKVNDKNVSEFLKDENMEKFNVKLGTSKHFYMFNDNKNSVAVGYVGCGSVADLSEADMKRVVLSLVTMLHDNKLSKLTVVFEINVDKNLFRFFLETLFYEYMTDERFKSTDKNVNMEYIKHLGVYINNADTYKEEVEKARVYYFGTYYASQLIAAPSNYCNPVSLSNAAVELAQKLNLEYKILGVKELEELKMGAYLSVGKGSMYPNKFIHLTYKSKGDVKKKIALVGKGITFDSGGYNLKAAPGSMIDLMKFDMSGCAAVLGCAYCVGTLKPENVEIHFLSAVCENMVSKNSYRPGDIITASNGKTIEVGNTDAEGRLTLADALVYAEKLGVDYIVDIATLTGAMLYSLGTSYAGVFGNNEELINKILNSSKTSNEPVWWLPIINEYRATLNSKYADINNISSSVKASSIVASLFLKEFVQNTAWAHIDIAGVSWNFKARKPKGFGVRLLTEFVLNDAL

cells = type: functional
[10] = molecular target: T5, RNA-binding protein pos-1 (Caenorhabditis elegans, UniProt G5EF15); assay: disruptors of C. elegans POS-1 RNA interaction – biochemical, fluorescence polarization, dose response (AID 1964);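 further: purified POS-1 fused to maltose binding protein made in E. coli; potency of compounds blocking POS-1 binding to fluorescent RNA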
T5 sequence (G5EF15 whole entry): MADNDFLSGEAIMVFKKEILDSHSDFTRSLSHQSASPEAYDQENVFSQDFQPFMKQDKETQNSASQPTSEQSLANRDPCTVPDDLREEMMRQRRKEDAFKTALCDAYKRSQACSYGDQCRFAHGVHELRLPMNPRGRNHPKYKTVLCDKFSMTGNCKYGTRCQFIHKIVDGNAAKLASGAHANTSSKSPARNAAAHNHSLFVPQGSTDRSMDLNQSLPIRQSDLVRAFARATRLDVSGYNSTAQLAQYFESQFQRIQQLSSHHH

[11] = molecular target: T6, Zinc finger protein mex-5 (Caenorhabditis elegans, UniProt Q9XUB2); assay: potency of MEX-5 RNA-binding blockers – biochemical, C. elegans, fluorescence polarization, dose response (AID 1960)
T6 sequence (Q9XUB2 whole entry): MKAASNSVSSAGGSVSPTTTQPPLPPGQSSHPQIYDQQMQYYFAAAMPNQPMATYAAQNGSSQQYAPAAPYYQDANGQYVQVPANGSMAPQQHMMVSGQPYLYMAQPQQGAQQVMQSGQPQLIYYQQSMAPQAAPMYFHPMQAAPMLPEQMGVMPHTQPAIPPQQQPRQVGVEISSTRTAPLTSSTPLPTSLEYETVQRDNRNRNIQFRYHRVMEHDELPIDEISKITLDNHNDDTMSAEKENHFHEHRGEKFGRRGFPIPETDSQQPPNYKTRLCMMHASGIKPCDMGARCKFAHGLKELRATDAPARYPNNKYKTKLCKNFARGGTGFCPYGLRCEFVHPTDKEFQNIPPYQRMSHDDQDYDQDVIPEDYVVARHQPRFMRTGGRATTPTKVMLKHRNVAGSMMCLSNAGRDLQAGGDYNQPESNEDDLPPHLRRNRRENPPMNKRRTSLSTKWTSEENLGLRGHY

With `CC(C)C1OC2c3cccc4cccc(c34)C2N1c1ccccc1` (centres undefined) as the compound, how does the EC50 [1] read?
Its EC50 is 3.22 µM (active).

And the IC50 [2]?
Its IC50 is > 66 µM (inactive).

And the EC50 (Streptococcus)?
The EC50 was > 150 µM (not active).

What about the IC50 [3] of the same compound?
Its IC50 is > 66 µM (inactive).

What about the EC50 (Streptokinase A) of the same compound?
The EC50 was 2.61 µM (active).

For `Cc1ccc([N+](=O)[O-])cc1/N=C(\c1cccc(Br)c1)N1CCOCC1`, which CC50 [4] is on record?
Its CC50 is 40.2 µM (active).

Which results are given for `CCOC(=O)C1(CCc2ccccc2)CCN(Cc2ccc(O)cc2)CC1`?
EC50 [5]: 5.31 µM (active); EC50 [6]: 2.99 µM (active)

With `CCN(CC)C(=O)Oc1ccc2cc(Br)ccc2c1` as the compound, how does the CC50 [4] read?
Its CC50 is 37 µM (active).

What does the source list for `CN(C)/C=C1\C(=O)N(c2ccc([N+](=O)[O-])cc2)N=C1c1ccccc1`?
CC50 [4]: 31.8 µM (active); EC50 [5]: 10.6 µM (active); EC50 [6]: 15 µM (active)

With `Cc1ccc(-c2csc(N=C(N)N)n2)cc1` as the compound, how does the AC50 [7] read?
The AC50 was 1.05 µM (active).

What about the CC50 [4] of the same compound?
Its CC50 is 46.4 µM (active).

For `Cc1ccc(Sc2cc(C(=O)NCCN(C)C)c3ccccc3n2)cc1`, which EC50 [5] is on record?
Its EC50 is 2.66 µM (active).

For `CC1N(C)c2cc(NC(=O)c3cccs3)c(P(=O)(Nc3ccc([N+](=O)[O-])cc3)N3CCOCC3)cc2C1(C)C` (centres undefined), which EC50 [8] is on record?
The EC50 was 1.98 µM (active).

What about the CC50 [4] of the same compound?
The CC50 was 32.1 µM (active).

And the EC50 [9]?
Its EC50 is > 30 µM (not active).

With `O/N=C/c1c[nH]c2ccccc12` as the compound, how does the IC50 (Leucine aminopeptidase) read?
The IC50 was 13.2 µM (active).

Which IC50 (cells) does the source give for `COC(=O)COc1ccc(S(=O)(=O)N2CCCCCC2)cc1` here?
The IC50 was 33.5 µM (active).

With `Nc1cccc2c1C(=O)N(Cc1nnc(-c3ccccc3Br)o1)C2=O` as the compound, how does the EC50 [10] read?
Its EC50 is 40 µM (active).

What about the IC50 [2] of the same compound?
The IC50 was > 66 µM (inactive).

And the IC50 [3]?
The IC50 was 48.1 µM (inactive).

What about the EC50 [11] of the same compound?
The EC50 was 29.4 µM (active).

With `CC(=O)NC(=S)Nc1cccc2c(C)cc(C)nc12` as the compound, how does the CC50 [4] read?
Its CC50 is > 50 µM (active).

With `Oc1cccc(C(=S)N2CCCCC2)c1` as the compound, how does the IC50 [2] read?
Its IC50 is > 66 µM (inactive).

What about the IC50 [3] of the same compound?
Its IC50 is > 66 µM (inactive).

With `CC(C)(C)C1CCc2c(C(=O)NNC(=O)CCCC(=O)O)csc2C1` (centres undefined) as the compound, how does the IC50 (Leucine aminopeptidase) read?
Its IC50 is 11.6 µM (active).

For `Cc1[nH]c2ccccc2c1C(=O)C(C)OC(=O)c1ccc([N+](=O)[O-])o1` (centres undefined), which IC50 (cells) is on record?
The IC50 was < 0.1 µM (active).

Which IC50 [2] does the source give for `Cc1cc(C)c2c(=O)c(C#N)coc2c1` here?
Its IC50 is > 66 µM (inactive).

And the IC50 [3]?
Its IC50 is > 66 µM (inactive).

With `COc1ccc(CCNC(=O)c2cc(-c3ccc(C)c(C)c3O)[nH]n2)cc1OC` as the compound, how does the CC50 [4] read?
Its CC50 is > 50 µM (active).

Which results are given for `COC1=CC(=NCl)C=CC1=NCl`?
IC50 [2]: > 66 µM (inactive); IC50 [3]: 49.9 µM (inactive)

For `Cc1ccn2nc(S(=O)(=O)Nc3c(F)cccc3F)nc2n1`, which IC50 (cells) is on record?
Its IC50 is 11.2 µM (active).

For `Cc1cc(C)c(C(=O)COC(=O)c2ccc([N+](=O)[O-])o2)cc1C`, which IC50 (cells) is on record?
The IC50 was 1 µM (active).

Which IC50 [2] does the source give for `NC(=O)c1cccc2c1-c1ccccc1/C2=N/NC(N)=S` here?
Its IC50 is > 66 µM (inactive).

What about the IC50 [3] of the same compound?
Its IC50 is > 66 µM (inactive).

For `Cc1ccc(-c2noc(CCCC(=O)Nc3cccnc3)n2)cc1`, which IC50 (cells) is on record?
Its IC50 is 37.4 µM (active).

With `COc1ccccc1N1CCN(/N=C/c2c(C)nn(-c3ccccc3)c2C)CC1` as the compound, how does the IC50 [2] read?
The IC50 was > 66 µM (inactive).

What about the IC50 [3] of the same compound?
The IC50 was > 66 µM (inactive).

Which results are given for `O=C1NN(CCO)C(=S)Nc2ccccc21`?
IC50 [2]: > 66 µM (inactive); IC50 [3]: > 66 µM (inactive)

For `CCO/C(O)=C/c1nc2ccccc2oc1=O`, which IC50 (cells) is on record?
The IC50 was 2.88 µM (active).
